Data: paper PMC10879502, “Linking ATP and allosteric sites to achieve superadditive binding with bivalent EGFR kinase inhibitors” (Communications Chemistry, 2024)

Key:
Assay in all cases: KINOMEscan
Type in all cases: binding
Settings in all cases: 1 μM
AKT2 = AKT2 (Homo sapiens, UniProt P31751)
AKT3 = AKT3 (Homo sapiens, UniProt Q9Y243)
ALK(C1156Y) = ALK(C1156Y) (Homo sapiens, UniProt Q9UM73, C1156Y)
AURKC = AURKC (Homo sapiens, UniProt Q9UQB9)
BRSK2 = molecular target: T1, BRSK2 (Homo sapiens, UniProt Q8IWQ3)
T1 construct: purchased Eurofins DiscoverX Corporation (KINOMEscan)

CDC2L2 = molecular target: T2, CDC2L2 (Homo sapiens, UniProt Q9UQ88)
T2 construct: purchased Eurofins DiscoverX Corporation (KINOMEscan)

CDKL1 = CDKL1 (Homo sapiens, UniProt Q00532)
CSF1R = CSF1R (Homo sapiens, UniProt P07333)
CSNK1D = molecular target: T3, CSNK1D (Homo sapiens, UniProt P48730)
T3 construct: purchased Eurofins DiscoverX Corporation

CSNK2A2 = molecular target: T4, CSNK2A2 (Homo sapiens, UniProt P19784)
T4 construct: purchased Eurofins DiscoverX Corporation

DDR1 = molecular target: T5, DDR1 (Homo sapiens, UniProt Q08345)
T5 construct: purchased Eurofins DiscoverX Corporation

DMPK2 = molecular target: T6, DMPK2 (Homo sapiens, UniProt Q6DT37)
T6 construct: purchased Eurofins DiscoverX Corporation

DYRK1B = molecular target: T7, DYRK1B (Homo sapiens, UniProt Q9Y463)
T7 construct: purchased Eurofins DiscoverX Corporation

FES = FES (Homo sapiens, UniProt P07332)
FGFR2 = FGFR2 (Homo sapiens, UniProt P21802)
FLT3(D835Y) = FLT3(D835Y) (Homo sapiens, UniProt P36888, D835Y)
HIPK4 = molecular target: T8, HIPK4 (Homo sapiens, UniProt Q8NE63)
T8 construct: purchased Eurofins DiscoverX Corporation

IKK-alpha = molecular target: T9, IKK-alpha (Homo sapiens, UniProt O15111)
T9 construct: purchased Eurofins DiscoverX (KINOMEscan)

ITK = molecular target: T10, ITK (Homo sapiens, UniProt Q08881)
T10 construct: purchased Eurofins DiscoverX (KINOMEscan)

[1] = molecular target: T11, JAK1(JH2domain-pseudokinase) (Homo sapiens, UniProt P23458)
T11 construct: JAK1(JH2domain-pseudokinase); purchased Eurofins DiscoverX (KINOMEscan)

JNK2 = molecular target: T12, JNK2 (Homo sapiens, UniProt P45984)
T12 construct: purchased Eurofins DiscoverX (KINOMEscan)

JNK3 = molecular target: T13, JNK3 (Homo sapiens, UniProt P53779)
T13 construct: purchased Eurofins DiscoverX (KINOMEscan)

LCK = molecular target: T14, LCK (Homo sapiens, UniProt P06239)
T14 construct: purchased Eurofins DiscoverX Corporation

MAP3K2 = molecular target: T15, MAP3K2 (Homo sapiens, UniProt Q9Y2U5)
T15 construct: purchased Eurofins DiscoverX Corporation

MYLK4 = molecular target: T16, MYLK4 (Homo sapiens, UniProt Q86YV6)
T16 construct: purchased Eurofins DiscoverX Corporation

OSR1 = OSR1 (Homo sapiens, UniProt O95747)
PAK6 = PAK6 (Homo sapiens, UniProt Q9NQU5)
PCTK1 = PCTK1 (Homo sapiens, UniProt Q00536)
PDGFRA = PDGFRA (Homo sapiens, UniProt P16234)
PIK3CG = PIK3CG (Homo sapiens, UniProt P48736)
PLK1 = PLK1 (Homo sapiens, UniProt P53350)
PLK3 = PLK3 (Homo sapiens, UniProt Q9H4B4)
PRKCQ = PRKCQ (Homo sapiens, UniProt Q04759)
RET(V804M) = RET(V804M) (Homo sapiens, UniProt P07949, V804M)
RIOK1 = RIOK1 (Homo sapiens, UniProt Q9BRS2)
[2] = molecular target: RSK3(Kin.Dom.1-N-terminal) (Homo sapiens, UniProt Q15349)
SBK1 = SBK1 (Homo sapiens, UniProt Q52WX2)
SIK2 = SIK2 (Homo sapiens, UniProt Q9H0K1)
TGFBR2 = molecular target: T17, TGFBR2 (Homo sapiens, UniProt P37173)
T17 construct: purchased Eurofins DiscoverX Corporation

TLK1 = molecular target: T18, TLK1 (Homo sapiens, UniProt Q9UKI8)
T18 construct: purchased Eurofins DiscoverX Corporation

WEE1 = WEE1 (Homo sapiens, UniProt P30291)
WNK4 = WNK4 (Homo sapiens, UniProt Q96J92)
YSK1 = YSK1 (Homo sapiens, UniProt O00506)

Chain of RIOK1 (Q9BRS2 whole entry): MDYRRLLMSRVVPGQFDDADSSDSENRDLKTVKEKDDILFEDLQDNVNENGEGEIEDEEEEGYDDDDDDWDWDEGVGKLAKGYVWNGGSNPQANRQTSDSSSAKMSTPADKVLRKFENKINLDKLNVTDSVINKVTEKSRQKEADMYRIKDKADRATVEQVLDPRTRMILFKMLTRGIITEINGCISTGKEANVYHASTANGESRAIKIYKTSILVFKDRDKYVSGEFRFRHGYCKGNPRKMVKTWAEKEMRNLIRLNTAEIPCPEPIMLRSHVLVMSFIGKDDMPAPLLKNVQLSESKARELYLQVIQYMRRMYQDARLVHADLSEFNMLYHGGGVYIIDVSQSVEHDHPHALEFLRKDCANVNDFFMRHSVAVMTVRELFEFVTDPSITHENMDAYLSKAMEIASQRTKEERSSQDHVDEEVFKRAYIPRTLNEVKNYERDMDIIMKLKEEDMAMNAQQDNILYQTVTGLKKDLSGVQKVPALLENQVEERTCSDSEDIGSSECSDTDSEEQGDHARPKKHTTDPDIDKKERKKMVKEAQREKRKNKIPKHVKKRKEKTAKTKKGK
Chain of AKT3 (Q9Y243 whole entry): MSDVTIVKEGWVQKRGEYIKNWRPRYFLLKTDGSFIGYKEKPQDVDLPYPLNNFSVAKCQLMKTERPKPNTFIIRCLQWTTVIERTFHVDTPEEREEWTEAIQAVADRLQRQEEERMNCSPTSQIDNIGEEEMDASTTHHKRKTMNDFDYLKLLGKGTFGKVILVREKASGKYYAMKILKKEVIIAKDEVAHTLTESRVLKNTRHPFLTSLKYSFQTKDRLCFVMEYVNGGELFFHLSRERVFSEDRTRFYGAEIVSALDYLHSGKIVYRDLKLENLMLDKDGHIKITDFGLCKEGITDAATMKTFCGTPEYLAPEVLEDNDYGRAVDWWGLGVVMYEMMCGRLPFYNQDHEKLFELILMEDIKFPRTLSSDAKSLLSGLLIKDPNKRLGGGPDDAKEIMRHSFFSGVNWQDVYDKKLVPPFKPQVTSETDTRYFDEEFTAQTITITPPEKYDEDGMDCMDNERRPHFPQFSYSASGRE
Chain of SIK2 (Q9H0K1 whole entry): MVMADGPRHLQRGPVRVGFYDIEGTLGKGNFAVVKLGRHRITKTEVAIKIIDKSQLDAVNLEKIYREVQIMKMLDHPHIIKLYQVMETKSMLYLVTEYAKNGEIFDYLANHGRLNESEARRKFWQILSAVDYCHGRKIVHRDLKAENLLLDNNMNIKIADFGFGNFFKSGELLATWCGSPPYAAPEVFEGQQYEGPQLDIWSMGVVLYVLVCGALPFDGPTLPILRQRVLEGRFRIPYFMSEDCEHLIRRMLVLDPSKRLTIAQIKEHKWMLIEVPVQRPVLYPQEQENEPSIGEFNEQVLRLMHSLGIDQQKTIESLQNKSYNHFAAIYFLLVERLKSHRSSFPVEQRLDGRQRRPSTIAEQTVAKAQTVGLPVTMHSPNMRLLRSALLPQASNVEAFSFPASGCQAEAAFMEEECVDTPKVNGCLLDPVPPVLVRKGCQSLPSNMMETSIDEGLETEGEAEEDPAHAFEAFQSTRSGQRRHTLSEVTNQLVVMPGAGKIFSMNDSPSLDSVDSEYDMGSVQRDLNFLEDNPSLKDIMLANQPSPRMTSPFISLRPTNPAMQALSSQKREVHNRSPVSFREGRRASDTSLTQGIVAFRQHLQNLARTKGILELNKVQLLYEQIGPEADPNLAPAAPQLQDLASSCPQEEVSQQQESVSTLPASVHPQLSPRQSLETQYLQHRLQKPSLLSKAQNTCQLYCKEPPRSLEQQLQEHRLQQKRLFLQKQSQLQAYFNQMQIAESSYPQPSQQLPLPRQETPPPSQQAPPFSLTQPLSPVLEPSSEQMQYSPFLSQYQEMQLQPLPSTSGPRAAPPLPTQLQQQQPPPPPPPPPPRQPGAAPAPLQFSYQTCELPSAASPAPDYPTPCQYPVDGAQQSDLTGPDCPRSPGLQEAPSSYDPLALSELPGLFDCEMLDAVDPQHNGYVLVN
T3 sequence (P48730 whole entry): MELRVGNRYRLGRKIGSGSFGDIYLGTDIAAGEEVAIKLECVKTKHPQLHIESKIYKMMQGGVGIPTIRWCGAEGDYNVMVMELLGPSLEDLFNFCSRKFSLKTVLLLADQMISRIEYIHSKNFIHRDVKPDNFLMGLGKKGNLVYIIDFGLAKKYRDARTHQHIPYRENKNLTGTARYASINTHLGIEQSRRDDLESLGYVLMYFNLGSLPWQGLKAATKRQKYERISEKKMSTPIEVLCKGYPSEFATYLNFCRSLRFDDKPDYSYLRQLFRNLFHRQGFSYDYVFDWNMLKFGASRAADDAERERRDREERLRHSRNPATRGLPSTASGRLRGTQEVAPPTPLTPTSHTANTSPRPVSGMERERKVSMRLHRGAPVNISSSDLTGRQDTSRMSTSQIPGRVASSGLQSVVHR
T2 sequence (Q9UQ88 whole entry): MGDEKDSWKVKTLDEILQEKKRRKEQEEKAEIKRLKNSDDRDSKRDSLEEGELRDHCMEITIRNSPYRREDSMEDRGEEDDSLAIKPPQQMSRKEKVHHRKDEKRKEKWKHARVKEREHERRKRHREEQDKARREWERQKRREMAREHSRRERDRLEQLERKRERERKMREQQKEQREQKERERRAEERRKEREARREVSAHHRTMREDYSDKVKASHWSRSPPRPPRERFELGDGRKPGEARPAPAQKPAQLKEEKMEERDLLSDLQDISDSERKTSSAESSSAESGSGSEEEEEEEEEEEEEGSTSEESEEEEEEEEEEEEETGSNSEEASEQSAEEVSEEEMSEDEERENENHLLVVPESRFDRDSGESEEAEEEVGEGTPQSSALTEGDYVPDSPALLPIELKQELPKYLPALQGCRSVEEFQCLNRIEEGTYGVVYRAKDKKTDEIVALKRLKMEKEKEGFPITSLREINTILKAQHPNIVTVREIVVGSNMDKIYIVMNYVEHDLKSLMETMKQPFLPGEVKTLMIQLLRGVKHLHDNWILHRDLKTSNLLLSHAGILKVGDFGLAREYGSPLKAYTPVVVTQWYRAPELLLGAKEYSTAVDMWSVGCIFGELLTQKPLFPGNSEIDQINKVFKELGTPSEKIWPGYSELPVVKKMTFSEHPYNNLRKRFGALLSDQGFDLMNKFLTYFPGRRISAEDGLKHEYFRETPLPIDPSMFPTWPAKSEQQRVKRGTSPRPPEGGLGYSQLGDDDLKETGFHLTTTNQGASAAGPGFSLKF
T17 sequence (P37173 23-567): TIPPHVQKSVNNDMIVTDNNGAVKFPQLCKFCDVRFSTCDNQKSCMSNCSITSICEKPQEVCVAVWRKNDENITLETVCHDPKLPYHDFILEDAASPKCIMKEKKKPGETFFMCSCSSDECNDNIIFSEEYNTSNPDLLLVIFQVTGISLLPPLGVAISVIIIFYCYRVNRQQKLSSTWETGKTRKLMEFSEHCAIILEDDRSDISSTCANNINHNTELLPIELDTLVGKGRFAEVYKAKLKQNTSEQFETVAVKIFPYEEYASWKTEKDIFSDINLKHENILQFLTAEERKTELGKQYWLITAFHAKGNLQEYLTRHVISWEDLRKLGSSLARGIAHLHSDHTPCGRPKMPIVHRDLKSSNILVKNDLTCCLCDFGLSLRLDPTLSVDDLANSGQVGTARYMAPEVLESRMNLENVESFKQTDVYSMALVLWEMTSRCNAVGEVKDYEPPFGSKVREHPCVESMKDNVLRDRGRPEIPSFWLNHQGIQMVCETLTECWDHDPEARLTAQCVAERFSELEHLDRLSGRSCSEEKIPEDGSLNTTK
T11 sequence (P23458 583-855 limits assumed): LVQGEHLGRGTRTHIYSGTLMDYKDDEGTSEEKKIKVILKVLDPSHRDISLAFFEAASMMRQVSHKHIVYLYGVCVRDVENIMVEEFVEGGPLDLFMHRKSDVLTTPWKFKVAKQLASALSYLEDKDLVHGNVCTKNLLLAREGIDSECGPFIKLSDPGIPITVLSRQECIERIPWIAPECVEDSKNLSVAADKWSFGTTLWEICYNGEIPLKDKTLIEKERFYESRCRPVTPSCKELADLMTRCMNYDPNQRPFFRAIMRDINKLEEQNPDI
Chain of FGFR2 (P21802 22-821): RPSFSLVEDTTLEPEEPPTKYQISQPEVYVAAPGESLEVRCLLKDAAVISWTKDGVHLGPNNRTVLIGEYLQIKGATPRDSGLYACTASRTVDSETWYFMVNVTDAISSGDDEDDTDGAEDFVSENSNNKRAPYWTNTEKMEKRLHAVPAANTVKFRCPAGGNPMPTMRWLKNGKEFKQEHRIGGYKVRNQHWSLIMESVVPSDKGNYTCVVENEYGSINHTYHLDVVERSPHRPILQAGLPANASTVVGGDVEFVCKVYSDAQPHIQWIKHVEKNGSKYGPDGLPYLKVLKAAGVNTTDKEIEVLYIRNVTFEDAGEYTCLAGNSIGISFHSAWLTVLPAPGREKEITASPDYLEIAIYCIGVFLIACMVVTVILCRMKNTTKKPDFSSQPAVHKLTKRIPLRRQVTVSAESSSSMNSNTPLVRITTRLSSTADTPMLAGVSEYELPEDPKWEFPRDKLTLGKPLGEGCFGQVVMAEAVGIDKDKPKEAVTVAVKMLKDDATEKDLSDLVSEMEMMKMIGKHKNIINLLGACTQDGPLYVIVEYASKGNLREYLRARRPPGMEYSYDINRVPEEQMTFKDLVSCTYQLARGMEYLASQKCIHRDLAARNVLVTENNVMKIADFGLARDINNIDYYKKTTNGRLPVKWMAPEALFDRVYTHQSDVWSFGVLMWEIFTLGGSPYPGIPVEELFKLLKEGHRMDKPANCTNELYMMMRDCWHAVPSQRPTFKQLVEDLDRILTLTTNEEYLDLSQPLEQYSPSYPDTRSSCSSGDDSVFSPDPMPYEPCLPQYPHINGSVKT

C=CC(=O)Nc1ccc(OC)c(Nc2cc(-c3[nH]c(CC)nc3-c3cccc(NC(=O)c4cccc5c4NC(=O)c4ccccc4N5)c3)ccn2)c1 [Compound 4]
POC (AKT2): 91% of control | POC (AKT3): 100% of control | POC (ALK(C1156Y)): 87% of control | POC (AURKC): 100% of control | POC (BRSK2): 93% of control | POC (CDC2L2): 91% of control | POC (CDKL1): 100% of control | POC (CSF1R): 100% of control | POC (CSNK1D): 87% of control | POC (CSNK2A2): 58% of control | POC (DDR1): 90% of control | POC (DMPK2): 0% of control | POC (DYRK1B): 88% of control | POC (FES): 28% of control | POC (FGFR2): 100% of control | POC (FLT3(D835Y)): 96% of control | POC (HIPK4): 92% of control | POC (IKK-alpha): 100% of control | POC (ITK): 87% of control | POC [1]: 83% of control | POC (JNK2): 78% of control | POC (JNK3): 53% of control | POC (LCK): 7.7% of control | POC (MAP3K2): 100% of control | POC (MYLK4): 95% of control | POC (OSR1): 89% of control | POC (PAK6): 93% of control | POC (PCTK1): 100% of control | POC (PDGFRA): 69% of control | POC (PIK3CG): 65% of control | POC (PLK1): 50% of control | POC (PLK3): 87% of control | POC (PRKCQ): 18% of control | POC (RET(V804M)): 91% of control | POC (RIOK1): 100% of control | POC [2]: 97% of control | POC (SBK1): 84% of control | POC (SIK2): 100% of control | POC (TGFBR2): 75% of control | POC (TLK1): 87% of control | POC (WEE1): 85% of control | POC (WNK4): 85% of control | POC (YSK1): 76% of control
